Data from publication PMC5760531, “Action Potential Recording and Pro-arrhythmia Risk Analysis in Human Ventricular Trabeculae” (Frontiers in Physiology, 2018).

Test system: human ventricular trabeculae
Experiment: Action potential recording and pro-arrhythmic score analysis in human ventricular trabeculae (hVT);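 also: sharp microelectrode action potential recordings at 37°C in Tyrode-perfused trabeculae, 4 cumulative concentrations each applied 31 min, values averaged over last 30 APs, vehicle 0.1% DMSO as control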
Conditions: for Refractoriness Escape (raw data) / Beat Escape (raw data) / EADs (raw data): n=4 trabeculae

Nc1nnc(-c2cccc(Cl)c2Cl)c(N)n1 [LAMOTRIGINE, Lamotrigine]
Refractoriness Escape (raw data) (1Hz, 59-FOLD free ETPC (17µM)): 0 | AMAX (average raw data) (2Hz, 0.6-FOLD free ETPC (17µM)): 97 | AMAX percentage change compared to vehicle control (2Hz, 0.6-FOLD free ETPC (17µM)): -7% | APD30 (average raw data) (2Hz, 0.6-FOLD free ETPC (17µM)): 107 | APD30 percentage change compared to vehicle control (2Hz, 0.6-FOLD free ETPC (17µM)): 2% | APD50 (average raw data) (2Hz, 0.6-FOLD free ETPC (17µM)): 149 | APD50 percentage change compared to vehicle control (2Hz, 0.6-FOLD free ETPC (17µM)): 3% | APD90 (average raw data) (2Hz, 0.6-FOLD free ETPC (17µM)): 232 | APD90 percentage change compared to vehicle control (2Hz, 0.6-FOLD free ETPC (17µM)): 2% | Alternans (average raw data) (2Hz, 0.6-FOLD free ETPC (17µM)): 0.95 | Alternans percentage change compared to vehicle control (2Hz, 0.6-FOLD free ETPC (17µM)): -59% | Beat Escape percentage change compared to vehicle control (2Hz, 0.6-FOLD free ETPC (17µM)): 0% | EADs percentage change compared to vehicle control (2Hz, 0.6-FOLD free ETPC (17µM)): 0% | ERP (average raw data) (2Hz, 0.6-FOLD free ETPC (17µM)): 0.46 | ERP percentage change compared to vehicle control (2Hz, 0.6-FOLD free ETPC (17µM)): 4% | Max Dispersion (average raw data) (2Hz, 0.6-FOLD free ETPC (17µM)): 6.98 | Max Dispersion percentage change compared to vehicle control (2Hz, 0.6-FOLD free ETPC (17µM)): 7% | RMP (average raw data) (2Hz, 0.6-FOLD free ETPC (17µM)): -82 | RMP percentage change compared to vehicle control (2Hz, 0.6-FOLD free ETPC (17µM)): -3% | Refractoriness Escape percentage change compared to vehicle control (2Hz, 0.6-FOLD free ETPC (17µM)): 0% | STV (average raw data) (2Hz, 0.6-FOLD free ETPC (17µM)): 0.58 | Triangulation (average raw data) (2Hz, 0.6-FOLD free ETPC (17µM)): 124 | Triangulation percentage change compared to vehicle control (2Hz, 0.6-FOLD free ETPC (17µM)): 2% | Beat Escape (raw data) (2Hz, 0.6-FOLD free ETPC (17µM)): 0 | EADs (raw data) (2Hz, 0.6-FOLD free ETPC (17µM)): 0 | Refractoriness Escape (raw data) (2Hz, 0.6-FOLD free ETPC (17µM)): 0 | AMAX (average raw data) (2Hz, 6-FOLD free ETPC (17µM)): 103 | AMAX percentage change compared to vehicle control (2Hz, 6-FOLD free ETPC (17µM)): -2% | APD30 (average raw data) (2Hz, 6-FOLD free ETPC (17µM)): 103 | APD30 percentage change compared to vehicle control (2Hz, 6-FOLD free ETPC (17µM)): -1% | APD50 (average raw data) (2Hz, 6-FOLD free ETPC (17µM)): 139 | APD50 percentage change compared to vehicle control (2Hz, 6-FOLD free ETPC (17µM)): -3% | APD90 (average raw data) (2Hz, 6-FOLD free ETPC (17µM)): 221 | APD90 percentage change compared to vehicle control (2Hz, 6-FOLD free ETPC (17µM)): -3% | Alternans (average raw data) (2Hz, 6-FOLD free ETPC (17µM)): 4.34 | Alternans percentage change compared to vehicle control (2Hz, 6-FOLD free ETPC (17µM)): 90% | Beat Escape percentage change compared to vehicle control (2Hz, 6-FOLD free ETPC (17µM)): 25% | EADs percentage change compared to vehicle control (2Hz, 6-FOLD free ETPC (17µM)): 0% | ERP (average raw data) (2Hz, 6-FOLD free ETPC (17µM)): 0.41 | ERP percentage change compared to vehicle control (2Hz, 6-FOLD free ETPC (17µM)): -7% | Max Dispersion (average raw data) (2Hz, 6-FOLD free ETPC (17µM)): 10.50 | Max Dispersion percentage change compared to vehicle control (2Hz, 6-FOLD free ETPC (17µM)): 62% | RMP (average raw data) (2Hz, 6-FOLD free ETPC (17µM)): -87 | RMP percentage change compared to vehicle control (2Hz, 6-FOLD free ETPC (17µM)): 3% | Refractoriness Escape percentage change compared to vehicle control (2Hz, 6-FOLD free ETPC (17µM)): 0% | STV (average raw data) (2Hz, 6-FOLD free ETPC (17µM)): 2.93 | Triangulation (average raw data) (2Hz, 6-FOLD free ETPC (17µM)): 117 | Triangulation percentage change compared to vehicle control (2Hz, 6-FOLD free ETPC (17µM)): -4% | Beat Escape (raw data) (2Hz, 6-FOLD free ETPC (17µM)): 1 | EADs (raw data) (2Hz, 6-FOLD free ETPC (17µM)): 0 | Refractoriness Escape (raw data) (2Hz, 6-FOLD free ETPC (17µM)): 0 | AMAX (average raw data) (2Hz, 18-FOLD free ETPC (17µM)): 85 | AMAX percentage change compared to vehicle control (2Hz, 18-FOLD free ETPC (17µM)): -16% | APD30 (average raw data) (2Hz, 18-FOLD free ETPC (17µM)): 110 | APD30 percentage change compared to vehicle control (2Hz, 18-FOLD free ETPC (17µM)): 4% | APD50 (average raw data) (2Hz, 18-FOLD free ETPC (17µM)): 139 | APD50 percentage change compared to vehicle control (2Hz, 18-FOLD free ETPC (17µM)): -4% | APD90 (average raw data) (2Hz, 18-FOLD free ETPC (17µM)): 227 | APD90 percentage change compared to vehicle control (2Hz, 18-FOLD free ETPC (17µM)): 2% | Alternans (average raw data) (2Hz, 18-FOLD free ETPC (17µM)): 34.70 | Alternans percentage change compared to vehicle control (2Hz, 18-FOLD free ETPC (17µM)): 1417% | Beat Escape percentage change compared to vehicle control (2Hz, 18-FOLD free ETPC (17µM)): 100% | EADs percentage change compared to vehicle control (2Hz, 18-FOLD free ETPC (17µM)): 0% | ERP (average raw data) (2Hz, 18-FOLD free ETPC (17µM)): 0.33 | ERP percentage change compared to vehicle control (2Hz, 18-FOLD free ETPC (17µM)): -25% | Max Dispersion (average raw data) (2Hz, 18-FOLD free ETPC (17µM)): 42.23 | Max Dispersion percentage change compared to vehicle control (2Hz, 18-FOLD free ETPC (17µM)): 550% | RMP (average raw data) (2Hz, 18-FOLD free ETPC (17µM)): -90 | RMP percentage change compared to vehicle control (2Hz, 18-FOLD free ETPC (17µM)): 10% | Refractoriness Escape percentage change compared to vehicle control (2Hz, 18-FOLD free ETPC (17µM)): 0% | STV (average raw data) (2Hz, 18-FOLD free ETPC (17µM)): 18.59 | Triangulation (average raw data) (2Hz, 18-FOLD free ETPC (17µM)): 117 | Triangulation percentage change compared to vehicle control (2Hz, 18-FOLD free ETPC (17µM)): -1% | Beat Escape (raw data) (2Hz, 18-FOLD free ETPC (17µM)): 4 | EADs (raw data) (2Hz, 18-FOLD free ETPC (17µM)): 0 | Refractoriness Escape (raw data) (2Hz, 18-FOLD free ETPC (17µM)): 0 | AMAX (average raw data) (2Hz, 59-FOLD free ETPC (17µM)): 48 | AMAX percentage change compared to vehicle control (2Hz, 59-FOLD free ETPC (17µM)): -52% | APD30 (average raw data) (2Hz, 59-FOLD free ETPC (17µM)): 106 | APD30 percentage change compared to vehicle control (2Hz, 59-FOLD free ETPC (17µM)): 4% | APD50 (average raw data) (2Hz, 59-FOLD free ETPC (17µM)): 145 | APD50 percentage change compared to vehicle control (2Hz, 59-FOLD free ETPC (17µM)): 7% | APD90 (average raw data) (2Hz, 59-FOLD free ETPC (17µM)): 268 | APD90 percentage change compared to vehicle control (2Hz, 59-FOLD free ETPC (17µM)): 34% | Alternans (average raw data) (2Hz, 59-FOLD free ETPC (17µM)): 3.93 | Alternans percentage change compared to vehicle control (2Hz, 59-FOLD free ETPC (17µM)): 72% | Beat Escape percentage change compared to vehicle control (2Hz, 59-FOLD free ETPC (17µM)): 100% | EADs percentage change compared to vehicle control (2Hz, 59-FOLD free ETPC (17µM)): 0% | ERP (average raw data) (2Hz, 59-FOLD free ETPC (17µM)): 0.41 | ERP percentage change compared to vehicle control (2Hz, 59-FOLD free ETPC (17µM)): -7% | Max Dispersion (average raw data) (2Hz, 59-FOLD free ETPC (17µM)): 21.90 | Max Dispersion percentage change compared to vehicle control (2Hz, 59-FOLD free ETPC (17µM)): 237% | RMP (average raw data) (2Hz, 59-FOLD free ETPC (17µM)): -74 | RMP percentage change compared to vehicle control (2Hz, 59-FOLD free ETPC (17µM)): -6% | Refractoriness Escape percentage change compared to vehicle control (2Hz, 59-FOLD free ETPC (17µM)): 0% | STV (average raw data) (2Hz, 59-FOLD free ETPC (17µM)): 2.81 | Triangulation (average raw data) (2Hz, 59-FOLD free ETPC (17µM)): 162 | Triangulation percentage change compared to vehicle control (2Hz, 59-FOLD free ETPC (17µM)): 64% | Beat Escape (raw data) (2Hz, 59-FOLD free ETPC (17µM)): 4 | EADs (raw data) (2Hz, 59-FOLD free ETPC (17µM)): 0 | Refractoriness Escape (raw data) (2Hz, 59-FOLD free ETPC (17µM)): 0 | TdP identification by pro-arrhythmic score (at 10-fold human free ETPC, score >10 unsafe, <10 safe): TdP positive | pro-arrhythmic score (at 100, 300, and 1,000 μM): above 40 | pro-arrhythmic score (at therapeutic exposure): below 10
